The NIST ThermoML archive (doi:10.1021/acs.jced.7b00221)
± gives the expanded uncertainty stated by the source.

Experiment: xn = mol fraction of the nth substance listed
Settings: 100 kPa, Liquid, Cone and plate viscometry

CCCCCCCCCCCCCC[P+](CCCCCC)(CCCCCC)CCCCCC.N#Cc1ccc[n-]1 [trihexyl(tetradecyl)phosphonium 2-cyanopyrrolide] + CCCCCC[n+]1ccn(C)c1.O=S(=O)([N-]S(=O)(=O)C(F)(F)F)C(F)(F)F
viscosity [mPa·s]
Settings	278.15 K	283.15 K	288.15 K	293.15 K	298.15 K	303.15 K	308.15 K	313.15 K	318.15 K	323.15 K
x1 = 0.1	337 ± 43	240 ± 30	176 ± 22	132 ± 16	101 ± 12	80 ± 10	64 ± 8	52 ± 6	–	–
x1 = 0.2	520 ± 67	363 ± 46	259 ± 32	190 ± 23	144 ± 18	111 ± 13	88 ± 11	71 ± 9	58 ± 7	–
x1 = 0.3	662 ± 86	455 ± 58	319 ± 40	229 ± 28	170 ± 21	129 ± 16	100 ± 12	79 ± 10	64 ± 8	52 ± 6
x1 = 0.4	900 ± 120	608 ± 79	420 ± 53	298 ± 37	217 ± 27	162 ± 20	125 ± 15	97 ± 12	78 ± 9	63 ± 8
x1 = 0.496	1216 ± 160	815 ± 110	558 ± 72	392 ± 50	284 ± 36	210 ± 26	160 ± 20	123 ± 15	98 ± 12	79 ± 10
x1 = 0.6	1407 ± 190	938 ± 120	638 ± 83	445 ± 57	319 ± 40	236 ± 29	177 ± 22	136 ± 17	107 ± 13	85 ± 10
x1 = 0.698	1684 ± 230	1117 ± 150	755 ± 99	525 ± 67	376 ± 48	275 ± 34	207 ± 26	158 ± 19	124 ± 15	99 ± 12
x1 = 0.8	1749 ± 240	1160 ± 160	785 ± 100	546 ± 70	391 ± 50	286 ± 36	214 ± 26	163 ± 20	128 ± 16	102 ± 12
x1 = 0.898	1844 ± 250	1223 ± 160	830 ± 110	578 ± 75	414 ± 53	303 ± 38	228 ± 28	173 ± 21	135 ± 16	108 ± 13
x1 = 1	1764 ± 240	1179 ± 160	804 ± 110	563 ± 73	404 ± 51	297 ± 37	223 ± 28	170 ± 21	133 ± 16	106 ± 13

CCCCCCCCCCCCCC[P+](CCCCCC)(CCCCCC)CCCCCC.N#Cc1ccc[n-]1 [trihexyl(tetradecyl)phosphonium 2-cyanopyrrolide] + CCCCCCn1cc[n+](C)c1C.O=S(=O)([N-]S(=O)(=O)C(F)(F)F)C(F)(F)F
viscosity [mPa·s]
Settings	278.15 K	283.15 K	288.15 K	293.15 K	298.15 K	303.15 K	308.15 K	313.15 K	318.15 K	323.15 K
x1 = 0.1	701 ± 91	472 ± 60	328 ± 41	234 ± 29	173 ± 21	131 ± 16	102 ± 12	81 ± 10	–	–
x1 = 0.201	895 ± 120	598 ± 78	411 ± 52	290 ± 36	212 ± 26	159 ± 19	122 ± 15	96 ± 12	77 ± 9	63 ± 8
x1 = 0.3	1056 ± 140	699 ± 91	474 ± 61	332 ± 42	240 ± 30	178 ± 22	136 ± 17	105 ± 13	83 ± 10	67 ± 8
x1 = 0.399	1356 ± 180	897 ± 120	607 ± 79	422 ± 54	304 ± 38	224 ± 28	169 ± 21	130 ± 16	103 ± 13	82 ± 10
x1 = 0.5	1594 ± 220	1048 ± 140	705 ± 92	488 ± 63	350 ± 44	257 ± 32	193 ± 24	148 ± 18	116 ± 14	93 ± 11
x1 = 0.601	1658 ± 230	1093 ± 150	734 ± 96	507 ± 65	361 ± 46	264 ± 33	197 ± 24	151 ± 18	117 ± 14	94 ± 11
x1 = 0.699	1745 ± 240	1141 ± 150	764 ± 100	527 ± 68	375 ± 47	273 ± 34	204 ± 25	155 ± 19	120 ± 15	96 ± 12
x1 = 0.799	1868 ± 260	1221 ± 160	820 ± 110	566 ± 73	403 ± 51	294 ± 37	219 ± 27	167 ± 20	130 ± 16	103 ± 13
x1 = 0.902	1930 ± 270	1279 ± 170	867 ± 110	602 ± 78	430 ± 55	315 ± 40	237 ± 29	180 ± 22	141 ± 17	112 ± 14
x1 = 1	1764 ± 240	1179 ± 160	804 ± 110	563 ± 73	404 ± 51	297 ± 37	223 ± 28	170 ± 21	133 ± 16	106 ± 13

CC(=O)[O-].CCCCCCCCCCCCCC[P+](CCCCCC)(CCCCCC)CCCCCC [trihexyl(tetradecyl)phosphonium acetate] + CCCCCC[n+]1ccn(C)c1.O=S(=O)([N-]S(=O)(=O)C(F)(F)F)C(F)(F)F
viscosity [mPa·s]
Settings	278.15 K	283.15 K	288.15 K	293.15 K	298.15 K	303.15 K	308.15 K	313.15 K	318.15 K	323.15 K
x1 = 0.101	353 ± 45	251 ± 31	182 ± 22	136 ± 17	105 ± 13	82 ± 10	66 ± 8	53 ± 6	–	–
x1 = 0.199	579 ± 75	404 ± 51	286 ± 36	209 ± 26	156 ± 19	120 ± 15	94 ± 11	75 ± 9	61 ± 7	–
x1 = 0.3	946 ± 130	644 ± 84	447 ± 57	319 ± 40	235 ± 29	177 ± 22	136 ± 17	107 ± 13	85 ± 10	70 ± 8
x1 = 0.4	1403 ± 190	939 ± 120	640 ± 83	449 ± 57	324 ± 41	239 ± 30	181 ± 22	140 ± 17	110 ± 13	88 ± 11
x1 = 0.499	2057 ± 290	1345 ± 180	901 ± 120	621 ± 81	440 ± 56	320 ± 40	238 ± 30	181 ± 22	141 ± 17	112 ± 14
x1 = 0.6	2588 ± 360	1669 ± 230	1100 ± 150	746 ± 98	523 ± 67	376 ± 48	277 ± 35	207 ± 26	159 ± 19	124 ± 15
x1 = 0.699	2721 ± 380	1763 ± 240	1160 ± 160	785 ± 100	530 ± 68	381 ± 48	279 ± 35	208 ± 26	159 ± 19	125 ± 15
x1 = 0.799	2877 ± 410	1850 ± 260	1219 ± 160	827 ± 110	578 ± 75	414 ± 53	304 ± 38	228 ± 28	175 ± 21	137 ± 17
x1 = 0.899	2415 ± 340	1575 ± 220	1047 ± 140	717 ± 94	505 ± 65	366 ± 46	271 ± 34	204 ± 25	158 ± 19	123 ± 15
